Values quoted from earlier work in patent US11191745B2, “Silica nanoparticle with an insoluble drug” (CITY OF HOPE, priority 2017, dated 2021).

Test system: plasma proteins
Conditions: systemically administered

drug bound to plasma proteins: more than 90%
SMILES: CC(=O)O[C@H]1C(=O)[C@@]2(C)[C@H]([C@H](OC(=O)c3ccccc3)[C@]3(O)C[C@H](OC(=O)[C@H](O)[C@@H](NC(=O)c4ccccc4)c4ccccc4)C(C)=C1C3(C)C)[C@]1(OC(C)=O)CO[C@@H]1C[C@@H]2O [PTX, Paclitaxel]
